Earlier results, collected in patent publication US20210308030A1, “SYSTEM, METHODS AND KITS FOR DIAGNOSIS AND TREATMENT OF FEMALE PATTERN HAIR LOSS” (Follea International, priority 2020, published 2021).

Tests used:
[1] = system: FPHL patients; conditions: both 2% and 5% minoxidil

| SMILES | risk for adverse events [1] | water solubility |
| --- | --- | --- |
| Nc1cc(N2CCCCC2)nc(N)[n+]1[O-] [minoxidil] | low |  |
| O=c1c(-c2ccc(O)cc2)coc2cc(O)ccc12 [daidzein] |  | poor |
| O=c1c(-c2ccc(O)cc2)coc2cc(O)cc(O)c12 [genistein] |  | poor |
